{
  "source": "patent US11478505B2",
  "about": "“Compositions of ixabepilone” (R-Pharm US Operating LLC, priority 2020, dated 2022)",
  "key": {"[1]": {"conditions": "cited from earlier work"}, "[2]": {"system": "MCF7 Human Breast Adenocarcinoma", "experiment": "cytotoxicity, cell viability count after 96 h of treatment", "assay_type": "cell-based", "conditions": "40 nM, trypan blue", "experimental": "(§1) After 96 hours of treatment, cells were counted for viability.\n(§2) Materials and Equipment: Eagle's Minimum Essential Media (ATCC No. 30-2003); F-12K Media (ATCC No. 30-2008); Fetal Bovine Serum (ATCC No. 30-2020); Penicillin/Streptomycin (Thermo Fisher No. 15-140-122); Human Recombinant Insulin 0.01 mg/mL (Sigma No. 19278); Trypsin (ATCC No. 25-200-072); Phosphate Buffered Saline (Corning from Thermo Fisher No. 21040CM); Hemocytometer (Hausser from Fischer No. 02-671-6); Trypan blue (Gibco No. 15250061); p100 tissue culture dishes (Falcon-Corning No. 08-772E). Ixabepilone (Lot 3L7304N) was provided by R-Pharm US. […] Saline control was phosphate-buffered 150 mM NaCl solution.\n(§3) Cells were rapidly thawed in a water bath at 37° C. and resuspended in appropriate media before being transferred to 60 mm or 100 mm tissue culture dishes. A549 cells were maintained in F12-K media, supplemented with 10% fetal bovine serum, and 1% penicillin/streptomycin. MCF7 cells were maintained in Eagle's Minimum Essential media, supplemented with 10% fetal bovine serum, 1% penicillin/streptomycin, and 0.01 mg/mL insulin. All cells were passaged at least three times before treatment. […] Saline was administered at the equivalent volume used for the ixabepilone treatment for each respective cell line. At 96 h, cells were trypsinized and harvested and counted with trypan blue on a hemocytometer."}, "[3]": {"system": "A549 Human Lung Carcinoma", "experiment": "cytotoxicity, cell viability count after 96 h of treatment", "assay_type": "cell-based", "conditions": "20 nM, trypan blue", "experimental": "as §1, §2, §3"}},
  "data": [
    {"smiles": "C/C(=C\\c1csc(C)n1)[C@@H]1C[C@@H]2O[C@]2(C)CCC[C@H](C)[C@H](O)[C@@H](C)C(=O)C(C)(C)[C@@H](O)CC(=O)N1", "note": "[ixabepilone, (1S,3S,7S,10R,11S,12S,16R)-7,11dihydroxy-8,8,10,12,16-pentamethyl-3-[(1E)-1-methyl-2-(2-methyl-4-thiazolyl)ethenyl]17-oxa-4-azabicyclo[14.1.0] heptadecane-5,9-dione]", "values": [
      {"measurement": "tolerability", "setting": "[1]; doses of 0.1, 1.0 or 2.0 mg/kg, weekly IV, 5 doses", "value": "generally well tolerated"},
      {"measurement": "no observed adverse effect level (NOAEL)", "setting": "[1]; weekly intravenous dosing for one month (5 doses)", "value": 0.1, "unit": "mg/kg"},
      {"measurement": "average cell viability count", "setting": "[2]", "value": "70×10^4"},
      {"measurement": "average cell viability count", "setting": "[3]", "value": "106×10^4"}
    ]}
  ]
}
